# Measured values: patent US20210128537A1, “T-TYPE CALCIUM CHANNEL MODULATORS AND METHODS OF USE THEREOF” (Praxis Precision Medicines, inc., priority 2016, published 2021)
# Tests used:
# [1] = tested on: Wistar rats, amygdala kindling; assay: Progression of seizures in the amygdala kindling model; assay type: in vivo, rat
# Protocol: Animals were implanted with EEG recording electrodes and with a stimulating bipolar electrode in the left basolateral amygdaloid nucleus using the coordinates AP±3.0 mm, ML±5.9 mm, DV±6.0 mm. The after discharge threshold (ADT) for each animal was determined by administering a stimulation (frequency=60.1 Hz; duration=1000 μs) at one minute intervals until a seizure was clicited. The amplitude of the stimulation was started at 0.02 mA with increments of 0.02 mA; the stimulations were stopped when the animal experienced a seizure of ≥6 second duration, or if the amplitude of 0.40 mA was reached without the occurrence of a seizure. […] Kindling was performed twice a day for five days per week with an endpoint of 30 stimulations or until the animal presented five class V seizures (referred to as fully kindled). The seizure severity was classified from 0 (less severe) to V (most severe) according to the Racine Scale (Racine, 1972b). Sham kindled animals were handled the same way as the kindled animals, although no electrical stimulation was applied. An animal is classified as fully kindled once it has experienced 5 class V seizures.
# Testing Z944 in the progression of seizures in the amygdala kindling model Wistar rats underwent surgery to implant bipolar stimulation electrodes and EEG recording electrodes as described above. ADT was determined as described for the anti-seizure study. Animals were randomly assigned to four different cohorts; Cohort 1: kindled sham+vehicle (n=8); Cohort 2: kindled+vehicle (n=6); Cohort 3: kindled+ETX (100 mg/kg, n=6) and Cohort 4: kindled+Z944 (30 mg/kg, n=7). Thirty minutes prior each kindling stimulation, the animals received an IP injection of vehicle, ETX, or Z944 administered at a dose volume of 5 ml/kg up to an endpoint of 30 stimulations and the seizure class elicited and seizure duration was recorded. […] Adverse effects were recorded every 15 minutes from the drug administration until 90 minutes after. An investigator blinded to the drug treatment analyzed all EEG recordings. The seizure class each stimulation elicited was recorded and averaged and the duration of the primary and total seizures were recorded.
# post-SE rats = assay: Morris water maze in post-SE rats; assay type: in vivo, rat; settings: Z944 60 mg/kg/day, levetiracetam 200 mg/kg/day for 4 weeks
# Protocol: All behavioural tests were performed in a light-controlled (˜110 lux), closed, quiet and clean room in the. Behavioural testing was performed in a blinded manner to the treatment groups. All of the behavioural tests were video recorded for future analysis. OF, EPM and MWM sessions were filmed using a digital camera mounted above the centre of the arena, which was connected to a computer for the recording and objective analysis of digitized behavioural tests (EthoVision 3.0.15, Noldus). The first behavioural test was performed one week after the last EEG recording. The different behavioural tests/session were performed 24 hours apart from each other. All tests were scored by an experienced observer who was blind to the experimental conditions of the animals.
# The MWM is a circular black PVC plastic pool of 160 cm diameter which is filled to a depth of either 2.5 cm above a 10 cm diameter hidden platform water at 25±1° C. The platform is located in the centre of the South-West quadrant during the first 3 sessions and changed to North-East quadrant for the remaining sessions. Visual cues are placed in the main 4 cardinal points, consisting of large black and white symbols that serve as orientation landmarks for the rats. […] The latency to find the escape platform, speed and strategic path used by the animal to locate the platform are recorded. […]
# [2] = tested on: GAERS (genetic rat model of GGE with absence seizures); assay: Systemic administration in GAERS, EEG spike-and-wave discharges; assay type: in vivo; settings: 30 mg/kg intraperitoneal; shift from 8 Hz with ethosuximide 100 mg/kg and vehicle
# Protocol: In vivo anti-seizure activity of Z941 and Z944 was assessed in eight female epileptic GAERS (180 to 250 g and 18 to 26 weeks). Rats were implanted with extradural recording electrodes. EEG data were acquired at a sampling rate of 256 Hz unfiltered using Compumedics ProFusion digital EEG acquisition software. After 60-min habituation, rats received intraperitoneal injections of drug, and after a further 15 min, the EEG was acquired for 120 min—the test period. […] Over a 5-week period, each rat received all treatments (crossover design) in a randomized manner with a 48-hour washout period between dosing of test compound, control vehicle, and positive control articles. […] Clinical observations of neurotoxic adverse effects were assessed every 15 min throughout the 120-min test period. These were quantified according to an ordinal scale of 0 to 4: 0, no sedation, normal movement; 1, slight sedation, slow movement but alert when startled; 2, mildly sedate, reduced struggle to restraint; 3, sedate, not moving in cage, but does respond to provocation; 4, very sedate, catatonic and unable to stand when provoked. The eight scores (taken for one experiment per rat) were then averaged, and group means were calculated for each treatment. Animals were also monitored daily for general health throughout the study period (that is, weight gain and fur condition). […]
smiles,measurement,setting,value
CC(C)(C)NC(=O)CN1CCC(CNC(=O)c2cc(F)cc(Cl)c2)CC1 [Z944],"number of stimulations to evoke a class III, IV or V seizure","[1]; 30 mg/kg IP 30 min prior each stimulation, vs vehicle",required significantly more stimulations
same,number of treated animals that reached the fully kindled state,"[1]; 30 mg/kg IP, n=7, up to 30 stimulations",one
same,number of stimulations to reach class V,"[1]; 30 mg/kg IP, vs ETX 100 mg/kg (p<0.01)",required more stimulations
same,number of stimulations to reach the fully kindled state,"[1]; 30 mg/kg IP, vs vehicle (p<0.01) and ETX (p<0.05)",required significantly more stimulations
same,time to find the hidden platform (cognition),post-SE rats,Improves Cognition
same,peak cycle frequency power during seizure activity (FFT),[2],6.5 Hz
